Key:
[1] = test system: HeLa cells; test: Cell death assay with HeLa cells, quantitative (calcein AM), TNF-α/CHX challenge; assay type: cell-based
Method: (§1) The cytoprotective properties of Cbz-Val-Asp(OMe)CH2F were tested using HeLa cells challenged with tumor necrosis factor-alpha (TNF-α) and cycloheximide (CHX). This is a well-characterized cell culture model of apoptosis which is commonly used to analyze anti-apoptotic agents. Two types of experiments were performed: a qualitative assessment of cell death by visualization of the cells using phase contrast microscopy; and a quantitative assessment of cell death using the fluorescent dye calcein AM.
For quantitative assays, the degree of cell survival in the presence of test compounds is analyzed quantitatively using the indicator dye calcein AM. This dye is taken up and converted to a fluorescent derivative by living cells; the amount of activated dye in each well can then be assayed in a fluorometric plate reader and the degree of fluorescence is used as a measure of the number of surviving cells. For these assays, HeLa cells are seeded in 48-well plates at a density of 25,000 cells per well in 0.4 mL of Minimal Essential Medium containing 2 mM glutamine and 10% fetal bovine serum. 24 hours later the plating medium is removed and 0.5 mL of fresh medium containing test compound at various concentrations is added. The cells are pre-incubated with test compound for 2 hours at 37° C. in a CO2 incubator and then TNF-α and CHX are added at final concentrations of 25 ng/mL and 30 μg/mL, respectively. After a 24 hour incubation period, the cultures are washed twice with serum-free, phenol red-free Ham's F12 to remove dead cells and 125 μL of Ham's F12 containing 8 μM calcein AM is added. […] The data are expressed as “Percent Control,” which is calculated by the following equation: Percent Control=(Calcein AM Signal in the Presence of Test Compound+TNF-α and CHX/(Calcein AM Signal in the Presence of CHX Only)×100% The use of CHX-treated cultures as controls, rather than untreated cultures, allows one to correct for the cytostatic effects of CHX. However, because CHX by itself is also a mild inducer of apoptosis in HeLa cells, strong anti-apoptotic drugs will give a Percent Control value greater than 100%.
Quantitative experiments using calcein AM, as described above, corroborate the results obtained by microscopic examination. FIGS. 4 and 5 illustrate the results of two such experiments where the cytoprotective properties of Cbz-Val-Asp(OMe)-CH2F (a) were compared to BOC-Asp(OMe)-CH2F (b) (FIG. 5) and Cbz-Asp(OMe)-Glu(OMe)-Val-Asp(OMe)-CH2F (SEQ ID NO:1) (c) (FIG. 4) at three concentrations (0.5, 5 and 50 μM). […] By contrast, Cbz-Val-Asp(OMe)-CH2F (a) is as effective a cytoprotectant at 0.5 μM as Cbz-Asp(OMe)-Glu(OMe)-Val-Asp(OMe)-CH2F (SEQ ID NO:1) […] is at 50 μM (FIG. 4).
In order to determine the effect of Cbz-Val-Asp(OMe)-CH2F at low doses, HeLa cells were treated with a range of concentrations from 0.05 μM to 1 μM.

[2] = test system: HeLa cells; test: Cell death assay with HeLa cells, qualitative (phase contrast microscopy), TNF-α/CHX challenge; assay type: cell-based; settings: for cytoprotection of HeLa cells from apoptotic effects of TNF-α and CHX (microscopy): 24 hour incubation
Method: as §1
For photomicroscopy, HeLa cells are seeded in 12-well multidishes at a density of 100,000 cells per well in Minimal Essential Medium containing 2 mM glutamine and 10% fetal bovine serum. 24 hours later the plating medium is removed and fresh medium is added containing the cytoprotective test compound at various concentrations. The cells are pre-incubated with test compound for 2 hours at 37° C. in a CO2 incubator and then TNF-α and CHX are added at final concentrations of 25 ng/mL and 30 μg/mL, respectively. After a 24 hour incubation period, the cells are examined visually for evidence of cell death based on cell shape and degree of adherence. Cells are considered dead if they have become rounded up and phase bright and have detached from the substratum. Cells are considered alive if they have retained their normal morphology and remain attached to the substratum.
All of these compounds are the methyl ester derivatives. […] At 50 μM, the related peptides BOC-Asp(OMe)-CH2F (FIG. 1C) and Cbz-Glu(OMe)-Val-Asp(OMe)-CH2F (FIG. 1E) are also protective.

[3] = test system: PARP cleavage in Jurkat cells; test: Inhibition of PARP cleavage in antiFas-treated Jurkat cells (Example 22, Western blot); assay type: cell-based, human; settings: for inhibition of PARP cleavage: antiFas-treated Jurkat cells
Text: The cleavage of the enzyme poly(ADP)ribose polymerase (PARP) appears to occur in all cells in which the caspase proteolytic cascade is activated. For this reason, PARP cleavage is widely used as a biochemical marker for caspase-mediated apoptosis. The ability of a cytoprotective drug to block PARP cleavage is considered to be an indication of the drug's ability to inhibit the caspase proteolytic cascade and, in particular, CPP32 (caspase-3), the main PARP protease. The ability of Cbz-Val-Asp(OMe)-CH2F to inhibit PARP cleavage was examined during Fas-mediated apoptosis of Jurkat cells, a human T-cell line. This cell culture model of apoptosis is well-characterized and is known to involve activation of at least two caspases, caspase-3 (CPP32) and caspase-8 (FLICE/MACH).
For PARP cleavage assays, Jurkat cells were seeded at a density of 500,000 cells per well in six-well multidishes in RPMI 1640 medium containing 10% FBS. The cells were pre-incubated with Cbz-Val-Asp(OMe)-CH2F or other test compounds for 2 hours at 37° C. in a CO2 incubator and then a monoclonal antibody to Fas was added at a final concentration of 500 ng/mL. Incubation at 37° C. in a CO2 incubator was continued for an additional 4 hours. […] An amount of lysate corresponding to 10 to 20 μg of protein was loaded on a 7.5% SDS polyacrylamide gel and electrophoresed for 2 to 2.5 hrs at 25 mA. The protein was then transferred to a PVDF membrane, probed with a rabbit polyclonal antibody to PARP, and visualized using chemiluminescence.
Jurkat cells were pre-incubated with 0.5, 5, or 50 μM of the following compounds: Cbz-Val-Asp(OMe)-CH2F (compound 1); BOC-Asp(OMe)-CH2F (compound 5); Cbz-Asp-α-([2,6-dichlorobenzoyloxy]-methyl ketone) (compound 6), Cbz-Glu(OMe)-Val-Asp(OMe)-CH2F (compound 3), Cbz-Asp(OMe)-Glu(OMe)-Val-Asp(OMe)-CH2F (SEQ ID NO:1) (compound 2), Cbz-Ile-Glu(OMe)-Thr-Asp(OMe)-CH2F (SEQ ID NO:2) (compound 4), or Cbz-Val-Ala-Asp(OMe)-CH2F (compound 7). The cells were then treated with antiFas and processed for Western Blotting.

SMILES: COC(=O)CC(NC(=O)C(NC(=O)OCc1ccccc1)C(C)C)C(=O)CF (stereo not drawn) [Cbz-Val-Asp(OMe)-CH2F, Z-Val-Asp-fmk Methyl Ester]
- protection of HeLa cells from TNF-α/CHX (calcein AM) ([1]; 0.5 μM): highly active
- concentration giving significant protection of HeLa cells from TNF-α/CHX ([1]; range 0.05 μM to 1 μM tested): ≤ 0.25 µM
- cytoprotection of HeLa cells from apoptotic effects of TNF-α and CHX (microscopy) ([2]; 0.5 μM): still an effective cytoprotectant
- cytoprotection of HeLa cells from apoptotic effects of TNF-α and CHX (microscopy) ([2]; 5 μM): surprisingly strong cytoprotective action
- cytoprotection of HeLa cells from apoptotic effects of TNF-α and CHX (microscopy) ([2]; 50 μM): completely protects
- protective concentration, fold lower than other putative anti-apoptotic agents ([2]; HeLa cells, TNF-α/CHX-induced apoptosis): 10 to 100 fold
- inhibition of PARP cleavage ([3]; 0.5 μM): significant inhibition
- inhibition of PARP cleavage ([3]; 5 μM): completely inhibited
- inhibition of PARP cleavage ([3]; 50 μM): completely inhibited
- concentration blocking the caspase proteolytic cascade in intact cells, fold lower than other known caspase inhibitors ([3]; Jurkat cells): at least 10 fold

Reference: patent publication US6949516B2, “Dipeptide apoptosis inhibitors and the use thereof” (Cytovia, Inc., priority 1997, dated 2005)
